Test results: PubChem BioAssay (NCI)
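48-hour exposure; five concentrations; linearly interpolated endpoints. Here, GI50 denotes the concentration required for 50% inhibition of growth. Definition used: TGI = concentration required for complete inhibition of growth.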

Experiments:
Assay in all cases: NCI tumour cell line growth inhibition, 48 h
[1] = system: CAKI-1 renal
[2] = system: SNB-19 CNS
[3] = system: MOLT-4 leukemia
[4] = system: SK-MEL-5 melanoma
[5] = system: A498 renal
[6] = system: NCI-H23 lung
[7] = system: OVCAR-5 ovarian
[8] = system: SN12C renal
[9] = system: SK-OV-3 ovarian
[10] = system: NCI-H460 lung
[11] = system: NCI/ADR-RES ovarian
[12] = system: RXF 393 renal
[13] = system: HCC-2998 colon
[14] = system: OVCAR-4 ovarian
[15] = system: HT29 colon
[16] = system: MCF7 breast
[17] = system: HCT-15 colon
[18] = system: SF-268 CNS
[19] = system: TK-10 renal
[20] = system: ACHN renal
[21] = system: PC-3 prostate
[22] = system: DU-145 prostate
[23] = system: BT-549 breast
[24] = system: SF-539 CNS
[25] = system: EKVX NSCLC
[26] = system: NCI-H226 lung
[27] = system: HL-60(TB) leukemia
[28] = system: U251 CNS
[29] = system: SF-295 CNS
[30] = system: K-562 leukemia
[31] = system: HOP-92 NSCLC
[32] = system: M14 melanoma
[33] = system: SK-MEL-28 melanoma
[34] = system: HS 578T breast
[35] = system: UACC-62 melanoma
[36] = system: MDA-MB-435
[37] = system: HCT-116 colon
[38] = system: MALME-3M melanoma
[39] = system: A549 NSCLC
[40] = system: COLO 205 colon
[41] = system: MDA-MB-231 breast
[42] = system: IGROV1 ovarian
[43] = system: CCRF-CEM leukemia
[44] = system: UO-31 renal
[45] = system: SNB-75 CNS
[46] = system: OVCAR-8 ovarian
[47] = system: LOX IMVI melanoma
[48] = system: NCI-H522 lung
[49] = system: RPMI-8226 leukemia
[50] = system: UACC-257 melanoma
[51] = system: SR leukemia
[52] = system: HOP-62 NSCLC
[53] = system: KM12 colon
[54] = system: T-47D breast
[55] = system: SW-620 colon
[56] = system: 786-0 renal
[57] = system: SK-MEL-2 melanoma

Structure (SMILES): CN(C)c1ccc(-c2cc(-c3c[nH]c4ccccc34)nc(N)c2C#N)cc1
- GI50 [1]: 1670 nM
- TGI [1]: 7.21 µM
- GI50 [2]: 2960 nM
- TGI [2]: > 100 µM
- GI50 [3]: 1890 nM
- TGI [3]: 14.1 µM
- GI50 [4]: 1840 nM
- TGI [4]: 3.6 µM
- GI50 [5]: 1780 nM
- TGI [5]: 4.66 µM
- GI50 [6]: 3.13 µM
- TGI [6]: 15.7 µM
- GI50 [7]: 3.17 µM
- TGI [7]: 19.1 µM
- GI50 [8]: 2870 nM
- TGI [8]: 10.8 µM
- GI50 [9]: 2050 nM
- TGI [9]: 4.88 µM
- GI50 [10]: 1060 nM
- TGI [10]: 3500 nM
- GI50 [11]: 1820 nM
- TGI [11]: > 100 µM
- GI50 [12]: 1300 nM
- TGI [12]: 3.13 µM
- GI50 [13]: 2150 nM
- TGI [13]: 10.5 µM
- GI50 [14]: 4.78 µM
- TGI [14]: 31.6 µM
- GI50 [15]: 1720 nM
- TGI [15]: 6.43 µM
- GI50 [16]: 1510 nM
- TGI [16]: 10.4 µM
- GI50 [17]: 485 nM
- TGI [17]: 10.4 µM
- GI50 [18]: 3890 nM
- TGI [18]: 31.9 µM
- GI50 [19]: 4.1 µM
- TGI [19]: 39.8 µM
- GI50 [20]: 2790 nM
- TGI [20]: 23.4 µM
- GI50 [21]: 2790 nM
- TGI [21]: 15.6 µM
- GI50 [22]: 3.45 µM
- TGI [22]: 21 µM
- GI50 [23]: 2220 nM
- TGI [23]: 7.31 µM
- GI50 [24]: 1330 nM
- TGI [24]: 3.05 µM
- GI50 [25]: 3.38 µM
- TGI [25]: 27.2 µM
- GI50 [26]: 4230 nM
- TGI [26]: 27 µM
- GI50 [27]: 1790 nM
- TGI [27]: 6.03 µM
- GI50 [28]: 1530 nM
- TGI [28]: 4.21 µM
- GI50 [29]: 1860 nM
- TGI [29]: 4.14 µM
- GI50 [30]: 653 nM
- TGI [30]: > 100 µM
- GI50 [31]: 2140 nM
- TGI [31]: 5.12 µM
- GI50 [32]: 1700 nM
- TGI [32]: 4.35 µM
- GI50 [33]: 1780 nM
- TGI [33]: 4.6 µM
- GI50 [34]: 2080 nM
- TGI [34]: 6.71 µM
- GI50 [35]: 2050 nM
- TGI [35]: 7.27 µM
- GI50 [36]: 466 nM
- TGI [36]: 10.1 µM
- GI50 [37]: 1600 nM
- TGI [37]: 4.45 µM
- GI50 [38]: 1720 nM
- TGI [38]: 4.6 µM
- GI50 [39]: 1920 nM
- TGI [39]: 7.09 µM
- GI50 [40]: 2110 nM
- TGI [40]: 6.03 µM
- GI50 [41]: 2160 nM
- TGI [41]: 10.6 µM
- GI50 [42]: 2350 nM
- TGI [42]: 17.6 µM
- GI50 [43]: 1540 nM
- TGI [43]: 36.4 µM
- GI50 [44]: 1880 nM
- TGI [44]: 6.37 µM
- GI50 [45]: 1840 nM
- TGI [45]: 8.96 µM
- GI50 [46]: 2780 nM
- TGI [46]: 10.7 µM
- GI50 [47]: 1560 nM
- TGI [47]: 3.58 µM
- GI50 [48]: 446 nM
- TGI [48]: 2160 nM
- GI50 [49]: 1950 nM
- TGI [49]: 4.89 µM
- GI50 [50]: 1890 nM
- TGI [50]: 4.74 µM
- GI50 [51]: 419 nM
- TGI [51]: 4.21 µM
- GI50 [52]: 1830 nM
- TGI [52]: 6.96 µM
- GI50 [53]: 1.85 µM
- TGI [53]: 8.72 µM
- GI50 [54]: 2320 nM
- TGI [54]: 7.83 µM
- GI50 [55]: 2160 nM
- TGI [55]: 11.3 µM

Structure (SMILES): COc1ccc(-c2cc(-c3cccc4ccccc34)n3c(n2)nc2ccccc23)cc1OC
- GI50 [1]: 559 nM
- TGI [1]: > 100 µM
- GI50 [2]: 2590 nM
- TGI [2]: > 100 µM
- GI50 [3]: 354 nM
- TGI [3]: > 100 µM
- GI50 [4]: 960 nM
- TGI [4]: 2.84 µM
- GI50 [7]: 3.03 µM
- TGI [7]: > 100 µM
- GI50 [8]: 1330 nM
- TGI [8]: > 100 µM
- GI50 [9]: 2550 nM
- TGI [9]: 44.9 µM
- GI50 [10]: 357 nM
- TGI [10]: 1750 nM
- GI50 [11]: 2070 nM
- TGI [11]: > 100 µM
- GI50 [12]: 2750 nM
- TGI [12]: > 100 µM
- GI50 [13]: 1620 nM
- TGI [13]: 4.72 µM
- GI50 [14]: 4.77 µM
- TGI [14]: > 100 µM
- GI50 [15]: 1910 nM
- TGI [15]: 28.2 µM
- GI50 [16]: 509 nM
- TGI [16]: > 100 µM
- GI50 [17]: 926 nM
- TGI [17]: > 100 µM
- GI50 [18]: 1950 nM
- TGI [18]: > 100 µM
- GI50 [19]: 2.47 µM
- TGI [19]: > 100 µM
- GI50 [20]: 461 nM
- TGI [20]: 3.35 µM
- GI50 [21]: 2500 nM
- TGI [21]: > 100 µM
- GI50 [23]: 2270 nM
- TGI [23]: 6.09 µM
- GI50 [24]: 1020 nM
- TGI [24]: 7.67 µM
- GI50 [25]: 2.79 µM
- TGI [25]: > 100 µM
- GI50 [26]: 1160 nM
- TGI [26]: 6.7 µM
- GI50 [27]: 419 nM
- TGI [27]: 3.29 µM
- GI50 [28]: 1160 nM
- TGI [28]: > 100 µM
- GI50 [29]: 582 nM
- TGI [29]: 5.33 µM
- GI50 [30]: 1320 nM
- TGI [30]: > 100 µM
- GI50 [31]: 1650 nM
- TGI [31]: 7.99 µM
- GI50 [56]: 1570 nM
- TGI [56]: > 100 µM
- GI50 [32]: 2080 nM
- TGI [32]: > 100 µM
- GI50 [33]: 2880 nM
- TGI [33]: > 100 µM
- GI50 [34]: 1420 nM
- TGI [34]: > 100 µM
- GI50 [35]: 1030 nM
- TGI [35]: 7.2 µM
- GI50 [36]: 2720 nM
- TGI [36]: > 100 µM
- GI50 [37]: 1660 nM
- TGI [37]: 49 µM
- GI50 [38]: 882 nM
- TGI [38]: 16.7 µM
- GI50 [39]: 580 nM
- TGI [39]: 15.2 µM
- GI50 [40]: 626 nM
- TGI [40]: > 100 µM
- GI50 [41]: 1520 nM
- TGI [41]: > 100 µM
- GI50 [42]: 1480 nM
- TGI [42]: > 100 µM
- GI50 [43]: 556 nM
- TGI [43]: > 100 µM
- GI50 [44]: 675 nM
- TGI [44]: > 100 µM
- GI50 [45]: 867 nM
- TGI [45]: 4.6 µM
- GI50 [46]: 1060 nM
- TGI [46]: > 100 µM
- GI50 [47]: 975 nM
- TGI [47]: 6.65 µM
- GI50 [48]: 2750 nM
- TGI [48]: > 100000 nM
- GI50 [49]: 1340 nM
- TGI [49]: 4.29 µM
- GI50 [50]: 2140 nM
- TGI [50]: 40.3 µM
- GI50 [51]: 362 nM
- TGI [51]: > 100 µM
- GI50 [52]: 650 nM
- TGI [52]: 4.51 µM
- GI50 [53]: 9.43 µM
- TGI [53]: > 100 µM
- GI50 [57]: 2570 nM
- TGI [57]: 7.47 µM
- GI50 [54]: 1730 nM
- TGI [54]: 9.24 µM
- GI50 [55]: 780 nM
- TGI [55]: > 100 µM
